# Numbered stars: 1 amine (or outer) side, 2 acyl side, 3 side chain; on linkers, the order of the positions; unused ones are H or OH. Bridge positions count the residues as written; N and C are the ends. Square brackets hold non-standard residues; d marks the D form. Peptide text beside a SMILES is read from it. * marks the point of attachment. hPhe(3,5-F2-4-CF3) = N[C@@H](CCc1cc(F)c(C(F)(F)F)c(F)c1)C(=O)O; hPhe(3-Cl-4-CF3) = N[C@@H](CCc1ccc(C(F)(F)F)c(Cl)c1)C(=O)O; hPhe(3-F,4-CF3) = N[C@@H](CCc1ccc(C(F)(F)F)c(F)c1)C(=O)O; X15 = O=C([C@H](CCc1cc(Cl)c(Cl)c(Cl)c1)N[*:1])[*:2]; NMeAla(cPent) = CN[C@@H](CC1CCCC1)C(=O)O; NMeGly(cPent) = CN[C@H](C(=O)O)C1CCCC1; dβ3hPip = O=C(C[C@H]1CCCCN1[*:1])[*:2]; NMeGly(cBu) = CN[C@H](C(=O)O)C1CCC1; NMeCha = CN[C@@H](CC1CCCCC1)C(=O)O; Hyp = O=C(O)[C@@H]1C[C@@H](O)CN1; NMeAhp(2) = CCCCC[C@H](NC)C(=O)O; NMeChg = CN[C@H](C(=O)O)C1CCCCC1; NMeD = CN[C@@H](CC(=O)O)C(=O)O; NMeL = CN[C@@H](CC(C)C)C(=O)O; NMeV = CN[C@H](C(=O)O)C(C)C; Morpholide = C1CN(*)CCO1; NMeA = CN[C@@H](C)C(=O)O; NMeAib = CNC(C)(C)C(=O)O; Nle = CCCC[C@H](N)C(=O)O; Piperidide = C1CCN(*)CC1; Pyrrolidide = C1CCN(*)C1; Ac5c = NC1(C(=O)O)CCCC1; Aze = O=C(O)[C@@H]1CCN1; Ac4c = NC1(C(=O)O)CCC1; Sar = CNCC(=O)O
# Assays:
# [1] = test system: Human pancreatic cancer cell line AsPC-1 (G12D mutation Kras); assay: AsPC-1 cell growth inhibition (AsPC-1 CGI); assay type: cell-based; settings: read-out: AsPC-1 cell growth inhibition, 50% growth inhibitory concentration (IC50 value); 96 hours, CellTiter-Glo, values classified in ranges
# Description: Test compounds were serially dilated with dimethyl sulfoxide, and 200 nL was then dispensed to a U-bottom 96-well plate using Labcyte Echo. […] The cell suspension was dispensed to a. plate containing a test compound at 100 μL per well and incubated at 37° C. in a 5% carbon dioxide gas incubator. 96 hours later, 80 μL of CellTiter-Glo (Promega) was added to each well and fluorescence was measured.
# [2] = test system: large bowel carcinoma cell line LS 180; assay: In vivo antitumor activity, mouse xenograft model, LS 180; settings: LS 180 (Colon) xenograft, 7 days
# Description: (§1) Tumor growth inhibition rate (TGI %)=(1−TV/CV)×100
# [3] = test system: various cancer cell lines (Ras mutation or amplification); assay: Measurement of cell growth inhibitory activity against various cancer cell lines (CellTiter-Glo); assay type: cell-based, human
# Description: Various cancer cell lines used were purchased from commercial suppliers. […] The cell suspension and culture medium supplemented with serum were dispensed to a plate containing the test compounds at 40 μL (384 well plate) or 200 μL (96 well plate) per well and incubated in a carbon dioxide gas incubator. […] Six days or seven days after the start of cultivation, 20 μL of CellTiter-Glo (Promega) was added to each well and fluorescence was measured.
# [4] = target: protein-protein interaction between Kras and SOS1 (biotin-tagged human Kras loaded with GDP, His-tagged human SOS1) (Homo sapiens (Human), UniProt P01116, G12D); assay: Protein-protein interaction inhibition between Kras and SOS1 (KrasG12D-SOS PPI) using AlphaScreen; assay type: biochemical; settings: AlphaScreen; biotin-tagged human Kras loaded with GDP, His-tagged human SOS1; read-out: KRAS G12D-SOS PPI IC50;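 also: kras produced in E. coli, Ni-coupled donor beads and streptavidin acceptor beads, excitation 680 nm with emission detected at 520–620 nm via singlet oxygen transfer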
# [5] = test system: non-small cell lung cancer cell line NC1-1441 with a KRAS mutation; assay: In vivo antitumor activity, mouse xenograft model, NCI-H441; settings: NCI-H441 (NSCLC) xenograft, 14 days
# Description: as §1
# [6] = A4/Fuk, Non-Hodgkin lymphoma, KRAS Amp
# [7] = MIA PaCa-2, Pancreas, KRAS G12C
smiles,measurement,setting,value
"CC[C@H](C)[C@@H]1NC(=O)[C@H](CC(C)C)N(C)C(=O)C[C@@H](C(=O)N2CCOCC2)N(C)C(=O)[C@H](C2CCCC2)N(C)C(=O)C2(CCCC2)NC(=O)[C@@H]2CCCN2C(=O)[C@H](CCc2ccc(C(F)(F)F)c(Cl)c2)NC(=O)CN(C)C(=O)[C@H](CC2CCCCC2)N(C)C(=O)[C@@H]2CCN2C(=O)[C@H](C)N(C)C1=O [Compound 926, (5S,8S,11S,15S,18S,23aS,29S,35S,37aS)-8-((S)-sec-butyl)-29-(3-chloro-4-(trifluoromethyl)phenethyl)-35-(cyclohexylmethyl)-18-cyclopentyl-11-isobutyl-5,6,12,16,19,33,36-heptamethyl-15-(morpholine-4-carbonyl)docosahydro-2H,4H-spiro[azeto[2,1-u]pyrrolo[2,1-i][1,4,7,10,13,16,19,22,25,28,31]undecaazacyclotetratriacontine-21,1′-cyclopentan]-4,7,10,13,17,20,23,28,31,34,37(14H,22H)-undecaone] ([NMeL]I[NMeA][Aze][NMeCha][Sar][hPhe(3-Cl-4-CF3)]P[Ac5c][NMeGly(cPent)][NMeD]-Morpholide; lactam N-11)",IC50,[1],≤ 20 nM
same,TGI (%),[2]; 15 mg/kg once daily,29%
same,TGI (%),[2]; 30 mg/kg once daily,75%
same,IC50,[3]; [6],1.28 nM
same,IC50,"[3]; A549, NSCLC, KRAS G12S",1.09 nM
same,IC50,"[3]; AGS, Stomach, KRAS G12D",1.46 nM
same,IC50,"[3]; AsPC-1, Pancreas, KRAS G12D",3.33 nM
same,IC50,"[3]; KURAMOCHI, Ovary, KRAS Amp",7.89 nM
same,IC50,"[3]; LS 180, Colon, KRAS G12D",5.39 nM
same,IC50,[3]; [7],8.93 nM
same,IC50,"[3]; NCI-H441, NSCLC, KRAS G12V",2.87 nM
same,IC50,"[3]; NCI-H929, Myeloma, NRAS G13D",18.8 nM
same,IC50,"[3]; NOMO-1, AML, KRAS G13D",29.1 nM
same,IC50,"[3]; SNU-1, Stomach, KRAS G12D",2.74 nM
same,IC50,"[3]; SW480, Colon, KRAS G12V",56.7 nM
same,IC50,[4],0.99 nM
"CCO[C@@H]1C[C@H]2C(=O)NC3(CCCC3)C(=O)N(C)[C@@H](C3CCCC3)C(=O)N(C)[C@H](C(=O)N(C)C)CC(=O)N(C)[C@@H](CC(C)C)C(=O)N[C@@H]([C@@H](C)CC)C(=O)N(C)[C@@H](C)C(=O)N3CC[C@H]3C(=O)N(C)[C@@H](CC3CCCCC3)C(=O)N(C)CC(=O)N[C@@H](CCc3cc(F)c(C(F)(F)F)c(F)c3)C(=O)N2C1 [Compound 1201, (5S,8S,11S,1S,18S,23aS,25R,29S,35S,37aS)-8-((S)-sec-butyl)-35-(cyclohexymethyl)-18-cyclopentyl-29-(3,5-difluoro-4-(trifluoromethyl)phenethyl)-25-ethoxy-11-isobutyl-N,N,5,6,12,16,19,33,36-nonamethyl-4,7,10,13,17,20,23,28,31,34,37-undecaoxotetratriacontahydro-2H,4H-spiro[azeto[2,1-u]pyrrolo[2,1-i][1,4,7,10,13,16,19,22,25,28,31]undecaazacyclotetratriacontine-21,1′-cyclopentane]-15-carboxamide] ([NMeL]I[NMeA][Aze][NMeCha][Sar][hPhe(3,5-F2-4-CF3)][Hyp](Et)[Ac5c][NMeGly(cPent)][NMeD]-NMe2; lactam N-11 (inferred); C-terminus assumed)",TGI (%),[5]; 3 mg/kg once daily,68%
same,TGI (%),[5]; 6 mg/kg once daily,92%
same,TGI (%),[5]; 10 mg/kg once daily,104%
same,IC50,[1],≤ 20 nM
same,IC50,[3]; [6],0.65 nM
same,IC50,"[3]; A549, NSCLC, KRAS G12S",0.25 nM
same,IC50,"[3]; AGS, Stomach, KRAS G12D",0.48 nM
same,IC50,"[3]; AsPC-1, Pancreas, KRAS G12D",0.84 nM
same,IC50,"[3]; HEC-151, Endometrium, NRAS G12D",2.3 nM
same,IC50,"[3]; KURAMOCHI, Ovary, KRAS Amp",2.63 nM
same,IC50,"[3]; LS 180, Colon, KRAS G12D",1.32 nM
same,IC50,[3]; [7],1.81 nM
same,IC50,"[3]; NCI-H441, NSCLC, KRAS G12V",0.89 nM
same,IC50,"[3]; NCI-H929, Myeloma, NRAS G13D",4.62 nM
same,IC50,"[3]; NOMO-1, AML, KRAS G13D",4.9 nM
same,IC50,"[3]; PA-1, Ovary, NRAS G12D",1.16 nM
same,IC50,"[3]; SW480, Colon, KRAS G12V",9.6 nM
CCCCC[C@H]1C(=O)N(C)[C@H](C(=O)N2CCCCC2)CC(=O)N(C)[C@@H](CC(C)C)C(=O)N[C@@H]([C@@H](C)CC)C(=O)N(C)[C@@H](C)C(=O)N2CC[C@H]2C(=O)N(C)[C@@H](CC2CCCCC2)C(=O)N(C)CC(=O)N[C@@H](CCc2ccc(C(F)(F)F)c(Cl)c2)C(=O)N2CCC[C@H]2C(=O)NC2(CCCC2)C(=O)N1C [Compound 1707] ([NMeL]I[NMeA][Aze][NMeCha][Sar][hPhe(3-Cl-4-CF3)]P[Ac5c][NMeAhp(2)][NMeD]-Piperidide; lactam N-11),IC50,[1],> 500 nM
same,IC50,[4],180 nM
CCCC[C@@H]1NC(=O)[C@H](CC(C)C)N(C)C(=O)C[C@@H](C(=O)N2CCCCC2)N(C)C(=O)[C@H](C(C)C)N(C)C(=O)C2(CCCC2)NC(=O)[C@@H]2CCCN2C(=O)[C@H](CCc2ccc(C(F)(F)F)c(Cl)c2)NC(=O)CN(C)C(=O)[C@H](CC2CCCCC2)N(C)C(=O)[C@@H]2CCN2C(=O)[C@H](C)N(C)C1=O [Compound 1823] ([NMeL][Nle][NMeA][Aze][NMeCha][Sar][hPhe(3-Cl-4-CF3)]P[Ac5c][NMeV][NMeD]-Piperidide; lactam N-11),IC50,[1],> 500 nM
same,IC50,[4],59 nM
CC[C@H](C)[C@@H]1NC(=O)[C@H](C2CCC2)N(C)C(=O)C[C@@H](C(=O)N2CCCCC2)N(C)C(=O)[C@H](C2CCCC2)N(C)C(=O)C2(CCCC2)NC(=O)[C@@H]2CCCN2C(=O)[C@H](CCc2ccc(C(F)(F)F)c(Cl)c2)NC(=O)CN(C)C(=O)[C@H](CC2CCCCC2)N(C)C(=O)[C@@H]2CCN2C(=O)[C@H](C)N(C)C1=O [Compound 270] ([NMeGly(cBu)]I[NMeA][Aze][NMeCha][Sar][hPhe(3-Cl-4-CF3)]P[Ac5c][NMeGly(cPent)][NMeD]-Piperidide; lactam N-11),IC50,[1],≤ 20 nM
same,IC50,[4],0.67 nM
"CC[C@H](C)[C@@H]1NC(=O)[C@H](C)N(C)C(=O)C[C@@H](C(=O)N2CCCCC2)N(C)C(=O)[C@H](C(C)C)N(C)C(=O)C2(CCCC2)NC(=O)[C@@H]2CCCN2C(=O)[C@H](CCc2cc(Cl)c(Cl)c(Cl)c2)NC(=O)CN(C)C(=O)[C@H](CC2CCCCC2)N(C)C(=O)CN(C)C(=O)CN(C)C1=O [Compound 2068, (3S,9S,18S,21S,25S,28S,34S)-9-(cyclohexylmethyl)-28-isopropyl-7,10,13,16,21,22,26,29-octamethyl-18-[(1S)-1-methylpropyl]-25-(piperidine-1-carbonyl)-3-[2-(3,4,5-trichlorophenyl)ethyl]spiro[1,4,7,10,13,16,19,22,26,29,32-undecazabicyclo[32.3.0]heptatriacontane-31,1′-cylopentane]-2,5,8,11,14,17,20,23,27,30,33-undecone] ([NMeA]I[Sar][Sar][NMeCha][Sar][X15]P[Ac5c][NMeV][NMeD]-Piperidide; lactam N-11)",IC50,[1],> 500 nM
same,IC50,[4],1.7 nM
CCO[C@@H]1C[C@H]2C(=O)NC3(CCC3)C(=O)N(C)[C@@H](C3CCCCC3)C(=O)N(C)[C@H](C(=O)N3CCCC3)CC(=O)N(C)[C@@H](CC(C)C)C(=O)N[C@@H]([C@@H](C)CC)C(=O)N(C)CC(=O)N(C)CC(=O)N(C)[C@@H](CC3CCCCC3)C(=O)N(C)CC(=O)N[C@@H](CCc3ccc(C(F)(F)F)c(Cl)c3)C(=O)N2C1 [Compound 1241] ([NMeL]I[Sar][Sar][NMeCha][Sar][hPhe(3-Cl-4-CF3)][Hyp](Et)[Ac4c][NMeChg][NMeD]-Pyrrolidide; lactam N-11),IC50,[1],≤ 20 nM
same,IC50,[4],0.5 nM
CC[C@H](C)[C@@H]1NC(=O)[C@H](CC(C)C)N(C)C(=O)C[C@@H](C(=O)N2CCCCC2)N(C)C(=O)[C@H](C2CCCCC2)N(C)C(=O)C2(CCCC2)NC(=O)[C@H](CC2CCCC2)N(C)C(=O)[C@H](CCc2ccc(C(F)(F)F)c(Cl)c2)NC(=O)CN(C)C(=O)[C@H](CC2CCCCC2)N(C)C(=O)CN(C)C(=O)CN(C)C1=O [Compound 643] ([NMeL]I[Sar][Sar][NMeCha][Sar][hPhe(3-Cl-4-CF3)][NMeAla(cPent)][Ac5c][NMeChg][NMeD]-Piperidide; lactam N-11),IC50,[1],> 500 nM
same,IC50,[4],27 nM
"CC[C@H](C)[C@@H]1NC(=O)[C@H](CC(C)C)N(C)C(=O)C[C@H]2CCCCN2C(=O)[C@H](CC(C)C)NC(=O)C(C)(C)N(C)C(=O)[C@H](CC(C)C)NC(=O)[C@H](CCc2ccc(C(F)(F)F)c(F)c2)NC(=O)CN(C)C(=O)[C@H](CC2CCCCC2)N(C)C(=O)CN(C)C(=O)CN(C)C1=O [Compound 1095] (cyclo(I[Sar][Sar][NMeCha][Sar][hPhe(3-F,4-CF3)]L[NMeAib]L[dβ3hPip][NMeL]))",IC50,[1],> 500 nM
same,IC50,[4],46 nM

# From US20240148821A1, “PHARMACEUTICAL USE OF CYCLIC PEPTIDE COMPOUND” (CHUGAI SEIYAKU KABUSHIKI KAISHA, priority 2021, published 2024)
